Assay results taken from US20250270217A1, “IMIDAZ0[1,2-A]PYRIMIDINE-5(1 H)-ONES HAVING A COVALENT WARHEAD AT THE 3-POSITION AS WRN INHIBITORS” (Incyte Corporation, priority 2023, published 2025).

What was measured:
[1] = molecular target: T1, WRN (Homo sapiens, UniProt Q14191); assay: WRN Helicase activity assay (fluorescence DNA unwinding); assay type: biochemical; details: 1-hr pre-incubation with enzyme; 100 μM ATP, 25 nM forked dsDNA, 1 nM WRN; geometric mean of at least 2 replicates
T1 construct: A His-tagged construct of WRN (AA S2-S1235) was produced and used for the ATPase assay; His; made in house; host or cells: Sf9 insect cells (baculovirus)
Procedure: Compounds of the examples were tested for WRN helicase activity. DNA encoding the target protein, 6×HIS-TEV-WRN-517-945, was produced, cloned and transfected as detailed in Example D. To determine the inhibitory properties of the compounds, a 384 wells plate-based Helicase assay was set up to measure the extent of DNA unwinding (Helicase) activity of WRN. The WRN Helicase assay was designed to measure increase in fluorescence signal using a fluorescence based, donor-quencher paired forked dsDNA oligomer substrate (custom synthesis from Sigma-Aldrich) prepared by annealing equal amounts of oligo GPat-1 ([BHQ2][…]) and oligo GPat-2 ([…][TAM]). Continuous measurement of fluorescent signal was used to optimize the buffer conditions, concentration of enzyme (WRN), concentration of substrates (ATP & dsDNA), and the linearity of the Helicase reaction. All solutions were prepared in the following assay buffer: 50 mM Tris-HCl, pH-7.5, 2 mM MgCl2, 50 mM NaCl, 1 mM EGTA, 0.01% P-20, 0.05% BSA, and 2 mM DTT prepared with nuclease free water.
A serial dilution (1:3 scheme) of the compounds was prepared in neat DMSO and 100 nL of the compounds was dispensed in the Greiner black low volume (Greiner #784076) 384 wells assay plate. An 1-hr pre-incubation of the compounds with enzyme was included. A His-tagged construct of WRN (AA S2-S1235) was produced and used for the ATPase assay. Maximum inhibition control wells were set up with the addition of only assay buffer, and no inhibition control wells were set up with neat DMSO without test compounds. The reaction was initiated by addition of 5 μL substrate mix (200 μM ultrapure ATP, and 50 nM dsDNA prepared in assay buffer) and incubated at 25° C. for 35 min. A typical Helicase reaction consists of 25 nM forked dsDNA, 100 μM ATP, and 1 nM WRN prepared in assay buffer. The WRN Helicase reaction was quenched by the addition of 5 μL ‘STOP’ solution containing 100 mM EDTA (final EDTA concentration 33.33 mM) prepared in assay buffer. The plates were read on BMG PHERAstar FSX using 540/590 module to measure an increase of fluorescence. Data analysis was carried out using the Genedata software following % of control normalization. Fitting parameters include dose response IC50, Hill slope (n), maximum inhibition (S∞), and minimum inhibition (S0). The reported IC50 values for compounds in this invention are the geometric means of at least 2 independent replicates.

[2] = molecular target: T1, WRN; assay: WRN ATPase activity assay (ADP-Glo); assay type: biochemical; details: 1-hr pre-incubation with enzyme; 100 μM ATP, 25 nM forked dsDNA, 1 nM WRN; geometric mean of at least 2 replicates
Procedure: Compounds of the Examples were tested for WRN ATPase activity. WRN ATPase activity catalyzes ATP hydrolysis to produce ADP and phosphate. DNA encoding the target protein, 6×HIS-TEV-WRN-517-945, was produced, cloned and transfected as detailed in Example D. The amount of ADP produced was measured using ADP-Glo™ Kinase Assay kit from Promega Corporation in a Greiner white regular volume 384 wells assay plate (Greiner #781075). Data was normalized to a standard curve generated using various ADP concentrations and the corresponding luminescent signal intensities at each concentration. The assay conditions were optimized for enzyme concentration (WRN), substrate concentrations (ATP & dsDNA), and the linearity of the ATPase reaction, in the following assay buffer: 50 mM Tris-HCl, pH-7.5, 2 mM MgCl2, 50 mM NaCl, 1 mM EGTA, 0.01% P-20, 0.05% BSA, and 2 mM DTT prepared with nuclease free water.
A serial dilution (1:3 scheme) of the compounds were prepared in neat DMSO, with 100 nL of the compounds dispensed in the 384 wells assay plate. An 1-hr pre-incubation of the compounds with enzyme was included. A His-tagged construct of WRN (AA S2-S1235) was produced and used for the ATPase assay. Maximum inhibition control wells were set up with the addition of only assay buffer, and no inhibition control wells were set up with neat DMSO without test compounds. The reaction was initiated by addition of 5 μL substrate mix (200 μM ultrapure ATP, and 50 nM dsDNA prepared in assay buffer) and incubated at 25° C. for 35 min. A forked dsDNA oligomer substrate was prepared by annealing equal amounts of oligo GPat-1 ([BHQ2][…]) and oligo GPat-2 ([…][TAM]) and was used as dsDNA substrate for WRN ATPase assay. A typical ATPase reaction consists of 25 nM forked dsDNA, 100 μM ATP, and 1 nM WRN prepared in assay buffer. The WRN ATPase reaction was stopped by the addition of 5 μL of ADP-Glo Reagent from ADP-Glo™ Kinase Assay kit and incubated for 40 min to deplete the unreacted ATP. Afterwards, 5 μL of Kinase Detection Reagent from the ADP-Glo™ Kinase Assay kit was added and incubated for 1 hr for the development of luminescence signal.
Luminesce signals were measured on BMG PHERAstar FSX using luminescence protocol. Data analysis was carried out using Genedata software following % of control normalization. Fitting parameters include dose response IC50, Hill slope (n), maximum inhibition (S∞), and minimum inhibition (S0). The reported IC50 values for compounds in this invention are the geometric means of at least 2 independent replicates.

T1 sequence (Q14191 2-1235): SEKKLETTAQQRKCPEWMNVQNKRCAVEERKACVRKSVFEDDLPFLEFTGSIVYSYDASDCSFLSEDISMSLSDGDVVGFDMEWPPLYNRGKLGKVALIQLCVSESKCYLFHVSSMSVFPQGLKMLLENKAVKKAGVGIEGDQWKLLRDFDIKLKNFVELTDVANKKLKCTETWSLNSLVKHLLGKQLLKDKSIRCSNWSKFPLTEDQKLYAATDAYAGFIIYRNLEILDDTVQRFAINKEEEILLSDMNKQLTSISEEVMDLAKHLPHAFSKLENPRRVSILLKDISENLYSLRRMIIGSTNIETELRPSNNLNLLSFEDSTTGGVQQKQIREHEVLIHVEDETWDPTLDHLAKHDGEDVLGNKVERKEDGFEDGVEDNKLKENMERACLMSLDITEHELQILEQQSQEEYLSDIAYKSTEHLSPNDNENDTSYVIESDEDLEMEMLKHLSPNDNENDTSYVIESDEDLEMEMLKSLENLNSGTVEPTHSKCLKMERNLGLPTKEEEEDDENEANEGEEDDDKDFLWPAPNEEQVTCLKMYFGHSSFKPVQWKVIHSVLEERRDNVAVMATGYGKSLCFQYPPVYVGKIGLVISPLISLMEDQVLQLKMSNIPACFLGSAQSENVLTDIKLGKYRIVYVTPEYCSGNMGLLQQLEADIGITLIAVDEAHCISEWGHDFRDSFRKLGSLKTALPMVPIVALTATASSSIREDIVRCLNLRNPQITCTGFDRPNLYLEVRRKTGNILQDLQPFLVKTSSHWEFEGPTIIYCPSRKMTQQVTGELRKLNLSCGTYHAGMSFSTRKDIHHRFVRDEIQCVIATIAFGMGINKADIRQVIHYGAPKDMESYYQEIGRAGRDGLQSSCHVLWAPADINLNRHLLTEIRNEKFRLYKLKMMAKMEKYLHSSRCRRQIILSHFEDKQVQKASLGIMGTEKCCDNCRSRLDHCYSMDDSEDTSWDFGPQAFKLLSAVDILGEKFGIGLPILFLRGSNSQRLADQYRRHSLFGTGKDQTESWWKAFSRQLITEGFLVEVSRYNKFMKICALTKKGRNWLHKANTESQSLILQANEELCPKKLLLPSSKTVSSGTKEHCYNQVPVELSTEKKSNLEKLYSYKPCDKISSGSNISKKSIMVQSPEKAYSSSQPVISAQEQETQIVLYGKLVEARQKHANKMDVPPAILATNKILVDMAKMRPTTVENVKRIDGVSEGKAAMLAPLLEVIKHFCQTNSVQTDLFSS

| IC50 [1] [nM] | IC50 [2] [nM] | SMILES |
| --- | --- | --- |
| < 100 | < 100 | C=CC(=O)Nc1c(Cl)cccc1-c1c(CC)nc2n(CC(=O)Nc3ccc(Cl)cc3Cl)c(C)cn2c1=O [Example 44, N-(2-chloro-6-(1-(2-((2,4-dichlorophenyl)amino)-2-oxoethyl)-7-ethyl-2-methyl-5-oxo-1,5-dihydroimidazo[1,2-a]pyrimidin-6-yl)phenyl)acrylamide] |
| < 100 | < 100 | C=CC(=O)Nc1cc(C(=O)NC(C)C)ccc1-c1c(CC)nc2n(CC(=O)Nc3ccc(C(F)(F)F)cc3)c(C)c(C)n2c1=O [Example 28, 3-Acrylamido-4-(7-ethyl-2,3-dimethyl-5-oxo-1-(2-oxo-2-((4-(trifluoromethyl)phenyl)amino)ethyl)-1,5-dihydroimidazo[1,2-a]pyrimidin-6-yl)-N-isopropylbenzamide] |
| < 100 | < 100 | C=CC(=O)Nc1cc(C(=O)N[C@H]2CCCOC2)ccc1-c1c(CC)nc2n(CC(=O)Nc3ccc(C(F)(F)F)cc3)c(C)c(C)n2c1=O [Example 33, (S)-3-Acrylamido-4-(7-ethyl-2,3-dimethyl-5-oxo-1-(2-oxo-2-((4-(trifluoromethyl)phenyl)amino)ethyl)-1,5-dihydroimidazo[1,2-a]pyrimidin-6-yl)-N-(tetrahydro-2H-pyran-3-yl)benzamide] |
| < 100 | < 100 | C=CC(=O)Nc1ccccc1-c1c(C)n(CC(=O)Nc2ccc(F)cc2)c2nc(CC)c(-c3ccccc3)c(=O)n12 [Example 37, N-(2-(7-Ethyl-1-(2-((4-fluorophenyl)amino)-2-oxoethyl)-2-methyl-5-oxo-6-phenyl-1,5-dihydroimidazo[1,2-a]pyrimidin-3-yl)phenyl)acrylamide] |
| < 100 | < 100 | C=CC(=O)Nc1cc(C(=O)NC2(CO)CC2)ccc1-c1c(CC)nc2n(CC(=O)Nc3ccc(C(F)(F)F)cc3)c(C)c(C)n2c1=O [Example 34, 3-Acrylamido-4-(7-ethyl-2,3-dimethyl-5-oxo-1-(2-oxo-2-((4-(trifluoromethyl)phenyl)amino)ethyl)-1,5-dihydroimidazo[1,2-a]pyrimidin-6-yl)-N-(1-(hydroxymethyl)cyclopropyl)benzamide] |

Second part, the compound before the results:

| SMILES | IC50 [1] [nM] | IC50 [2] [nM] |
| --- | --- | --- |
| C=CC(=O)Nc1cc(C(=O)NCC)ccc1-c1c(CC)nc2n(CC(=O)Nc3ccc(C(F)(F)F)cc3)c(C)c(C)n2c1=O [Example 27, 3-Acrylamido-N-ethyl-4-(7-ethyl-2,3-dimethyl-5-oxo-1-(2-oxo-2-((4-(trifluoromethyl)phenyl)amino)ethyl)-1,5-dihydroimidazo[1,2-a]pyrimidin-6-yl)benzamide] | < 100 | < 100 |
| C=CC(=O)Nc1ccccc1-c1c(CC)nc2n(CC(=O)Nc3ccc(C(F)(F)F)cc3)c(C)cn2c1=O [Example 1, N-(2-(7-Ethyl-2-methyl-5-oxo-1-(2-oxo-2-((4-(trifluoromethyl)phenyl)amino)ethyl)-1,5-dihydroimidazo[1,2-a]pyrimidin-6-yl)phenyl)acrylamide] | < 100 | < 100 |
| C=CC(=O)Nc1cc(S(C)(=O)=O)ccc1-c1c(CC)nc2n(CC(=O)Nc3ccc(C(F)(F)F)cc3)c(C)cn2c1=O [Example 3, N-(2-(7-Ethyl-2-methyl-5-oxo-1-(2-oxo-2-((4-(trifluoromethyl)phenyl)amino)ethyl)-1,5-dihydroimidazo[1,2-a]pyrimidin-6-yl)-5-(methylsulfonyl)phenyl)acrylamide] | < 100 | < 100 |
| C=CC(=O)Nc1cc(C(=O)NC2CC2)ccc1-c1c(CC)nc2n(CC(=O)Nc3ccc(C(F)(F)F)cc3Cl)c(C)c(C)n2c1=O [Example 26, 3-Acrylamido-4-(1-(2-((2-chloro-4-(trifluoromethyl)phenyl)amino)-2-oxoethyl)-7-ethyl-2,3-dimethyl-5-oxo-1,5-dihydroimidazo[1,2-a]pyrimidin-6-yl)-N-cyclopropylbenzamide] | < 100 | < 100 |
| C=CC(=O)Nc1ccccc1-c1c(CC)nc2n(CC(=O)Nc3ccc(F)cc3Cl)c(C)c(C)n2c1=O [Example 20, N-(2-(1-(2-((2-Chloro-4-fluorophenyl)amino)-2-oxoethyl)-7-ethyl-2,3-dimethyl-5-oxo-1,5-dihydroimidazo[1,2-a]pyrimidin-6-yl)phenyl)acrylamide] | < 100 | < 100 |
| C#CCNC(=O)c1ccc(-c2c(CC)nc3n(CC(=O)Nc4ccc(C(F)(F)F)cc4)c(C)cn3c2=O)c(NC(=O)C=C)c1 [Example 12, 3-Acrylamido-4-(7-ethyl-2-methyl-5-oxo-1-(2-oxo-2-((4-(trifluoromethyl)phenyl)amino)ethyl)-1,5-dihydroimidazo[1,2-a]pyrimidin-6-yl)-N-(prop-2-yn-1-yl)benzamide] | < 100 | < 100 |
| C=CC(=O)Nc1cc(-c2cnn(C)c2)ccc1-c1c(CC)nc2n(CC(=O)Nc3ccc(C(F)(F)F)cc3)c(C)cn2c1=O [Example 5, N-(2-(7-Ethyl-2-methyl-5-oxo-1-(2-oxo-2-((4-(trifluoromethyl)phenyl)amino)ethyl)-1,5-dihydroimidazo[1,2-a]pyrimidin-6-yl)-5-(1-methyl-1H-pyrazol-4-yl)phenyl)acrylamide] | < 100 | < 100 |
| C=CC(=O)Nc1cc(C(=O)NC2CC2)ccc1-c1c(CC)nc2n(CC(=O)Nc3ccc(C(F)(F)F)cc3)c(C)cn2c1=O [Example 8, 3-Acrylamido-N-cyclopropyl-4-(7-ethyl-2-methyl-5-oxo-1-(2-oxo-2-((4-(trifluoromethyl)phenyl)amino)ethyl)-1,5-dihydroimidazo[1,2-a]pyrimidin-6-yl)benzamide] | < 100 | < 100 |
| C=CC(=O)Nc1cc(C(=O)NC2CC2)ccc1-c1c(CC)nc2n(CC(=O)Nc3ccc(F)cc3)c(C)c(C)n2c1=O [Example 24, 3-Acrylamido-N-cyclopropyl-4-(7-ethyl-1-(2-((4-fluorophenyl)amino)-2-oxoethyl)-2,3-dimethyl-5-oxo-1,5-dihydroimidazo[1,2-a]pyrimidin-6-yl)benzamide] | < 100 | < 100 |
| C=CC(=O)Nc1ccccc1-c1c(CC)nc2n(CC(=O)Nc3ccc(C(F)(F)F)cc3)c(-c3ccccc3)cn2c1=O [Example 22, N-(2-(7-Ethyl-5-oxo-1-(2-oxo-2-((4-(trifluoromethyl)phenyl)amino)ethyl)-2-phenyl-1,5-dihydroimidazo[1,2-a]pyrimidin-6-yl)phenyl)acrylamide] | 500 to 1000 | 1000 to 5000 |
